Like-named read-outs stand apart in the source and are kept apart here.
Assays:
[1] = Tissue distribution of radioactivity after intravenous injection; type: in vivo, BALB/C mice; details: mouse, iv, i.v.; for tissue uptake at 0.5 h: 0.50 h
From the text: Tables 1 and 2 show the percent of injected IAZG and IAZA respectively per gram of wet tissue for selected tissues excised from BALB/C mice bearing EMT-6 tumors. This tumor model is known to have a high hypoxic fraction (0.33) (16). […] Hepatobiliary excretion may play a role in blood clearance as evidenced by elevated liver radioactivity and the appearance of activity in the intestine. Some oxidative or reductive metabolites of the 2-nitroimidazoles may also become bound to liver tissue, as was postulated in an in vivo study with ^14 C-MISO (6). This supposition is supported by the persistence of liver radioactivity at longer time periods. […] At 8 and 24 hours thyroid levels of IAZG are 7.2 and 30.9% of the total body activity and for IAZA they are 7.9 and 33.8% of total body activity. EXAMPLE 11 TISSUE DISTRIBUTION AND EXCRETION Tumor propagation of EMT-6 tumors in BALB/C mice was accomplished by subcutaneous injection of a cell suspension (10^5 cells in 0.1 mL) as described previously (10). Tumors reached about 10 mm in diameter (≈0.5 g) at 12 to 14 days, at which time each animal was given a bolus intravenous injection of ^125 I-labelled test drug via the tail vein (40 to 60 kBq in 0.1 mL). At set time periods the animals were asphyxiated with CO2 and exsanguinated via cardiac puncture. Tissues were dissected, weighed wet into vials and counted for ^125 I-activity. Whole-body activity was determined by summation of total activity in tissues and in residual carcass, and blood activity was determined from the blood aliquot, assuming blood to be 6.5% of the total body weight. EXAMPLE 12 Male BALB/c mice (20-25 g) were inoculated subcutaneously in the left flank with a suspension of murine EMT-6 cells (10^5 cells in 0.1 mL) (14). After 12 to 14 days, when the tumors reached the desired size (8-10 mm diameter), each mouse received a single intravenous (iv) injection of ^125 I-IAZA (59 kBq in 0.1 mL). […] Heart, lung, liver, spleen, muscle, bone, thyroid, kidney, stomach, small intestine, tail, tumor and skin were removed upon necropsy, weighed and analyzed for ^125 I using a Beckman Model 8000 gamma scintillation counter. The remaining carcass mass was also weighed and radioassayed.

EMT-6 cells = experiment: Toxicity to hypoxic EMT-6 cells (surviving fraction); type: cell-based, mouse
Description: This represents a cytosidal toxicity about 10× that of MISO under the same conditions.
EXAMPLE 9 TOXICITY STUDIES
EMT-6 mouse fibrosarcoma cells in stirred cultures, as described previously (5), were exposed to various concentrations of the test drugs under hypoxic conditions. Cells were removed at various intervals and the colony-forming ability was assessed by plating the cells in drug-free complete MEM with 10% fetal calf serum. The data were used to construct plots of surviving fraction of EMT-6 cells against time of incubation with test drug at various drug concentrations (FIG. 2) as in Jette (13).

[2] = blood, read-out: Percent of Injected Dose per Gram, Blood
[3] = bone, read-out: Percent of Injected Dose per Gram, Bone
[4] = carcass, read-out: Percent of Injected Dose per Gram, Carcass
[5] = heart, read-out: Percent of Injected Dose per Gram, Heart
[6] = intestine, read-out: Percent of Injected Dose per Gram, Intestine
[7] = kidney, read-out: Percent of Injected Dose per Gram, Kidney
[8] = liver, read-out: Percent of Injected Dose per Gram, Liver
[9] = lung, read-out: Percent of Injected Dose per Gram, Lung
[10] = muscle, read-out: Percent of Injected Dose per Gram, Muscle
[11] = spleen, read-out: Percent of Injected Dose per Gram, Spleen
[12] = stomach, read-out: Percent of Injected Dose per Gram, Stomach
[13] = tumor, read-out: Percent of Injected Dose per Gram, Tumor

O=[N+]([O-])c1nccn1[C@@H]1O[C@H](CI)[C@@H](O)[C@@H]1O [IAZA, 1-(5-iodo-5-deoxy-β-D-arabino-furanosyl)-2-nitroimidazole]
tissue uptake at 0.25 h [1, 2]: 2.63 ± 0.28 %ID/g | tissue uptake at 0.5 h [1, 2]: 2.17 ± 0.85 %ID/g | tissue uptake at 1 h [1, 2]: 1.84 ± 0.72 %ID/g | tissue uptake at 2 h [1, 2]: 0.91 ± 1.56 %ID/g | tissue uptake at 4 h [1, 2]: 0.45 ± 1.24 %ID/g | tissue uptake at 8 h [1, 2]: 0.14 ± 0.07 %ID/g | tissue uptake at 24 h [1, 2]: 0.037 ± 0.047 %ID/g | tissue uptake at 0.25 h [1, 3]: 1.31 ± 0.18 %ID/g | tissue uptake at 0.5 h [1, 3]: 1.37 ± 0.57 %ID/g | tissue uptake at 1 h [1, 3]: 1.15 ± 0.52 %ID/g | tissue uptake at 2 h [1, 3]: 0.58 ± 0.26 %ID/g | tissue uptake at 4 h [1, 3]: 0.27 ± 0.09 %ID/g | tissue uptake at 8 h [1, 3]: 0.08 ± 0.03 %ID/g | tissue uptake at 24 h [1, 3]: 0.022 ± 0.03 %ID/g | tissue uptake at 0.25 h [1, 4]: 2.68 ± 0.44 %ID/g | tissue uptake at 0.5 h [1, 4]: 2.55 ± 0.37 %ID/g | tissue uptake at 1 h [1, 4]: 2.23 ± 0.91 %ID/g | tissue uptake at 2 h [1, 4]: 1.46 ± 0.29 %ID/g | tissue uptake at 4 h [1, 4]: 0.89 ± 0.52 %ID/g | tissue uptake at 8 h [1, 4]: 0.28 ± 0.12 %ID/g | tissue uptake at 24 h [1, 4]: 0.038 ± 0.016 %ID/g | tissue uptake at 0.25 h [1, 5]: 4.69 ± 0.91 %ID/g | tissue uptake at 0.5 h [1, 5]: 3.56 ± 0.66 %ID/g | tissue uptake at 1 h [1, 5]: 2.78 ± 1.3 %ID/g | tissue uptake at 2 h [1, 5]: 1.03 ± 0.43 %ID/g | tissue uptake at 4 h [1, 5]: 0.32 ± 0.24 %ID/g | tissue uptake at 8 h [1, 5]: 0.22 ± 0.05 %ID/g | tissue uptake at 24 h [1, 5]: 0.042 ± 0.017 %ID/g | tissue uptake at 0.25 h [1, 6]: 5.42 ± 1.03 %ID/g | tissue uptake at 0.5 h [1, 6]: 4.44 ± 0.62 %ID/g | tissue uptake at 1 h [1, 6]: 4.63 ± 1.92 %ID/g | tissue uptake at 2 h [1, 6]: 1.73 ± 0.55 %ID/g | tissue uptake at 4 h [1, 6]: 0.81 ± 0.46 %ID/g | tissue uptake at 8 h [1, 6]: 0.77 ± 0.36 %ID/g | tissue uptake at 24 h [1, 6]: 0.041 ± 0.016 %ID/g | tissue uptake at 0.25 h [1, 7]: 6.56 ± 0.63 %ID/g | tissue uptake at 0.5 h [1, 7]: 5.67 ± 0.95 %ID/g | tissue uptake at 1 h [1, 7]: 4.38 ± 1.25 %ID/g | tissue uptake at 2 h [1, 7]: 1.8 ± 0.61 %ID/g | tissue uptake at 4 h [1, 7]: 0.66 ± 0.39 %ID/g | tissue uptake at 8 h [1, 7]: 0.34 ± 0.06 %ID/g | tissue uptake at 24 h [1, 7]: 0.52 ± 0.004 %ID/g | tissue uptake at 0.25 h [1, 8]: 8.65 ± 1.02 %ID/g | tissue uptake at 0.5 h [1, 8]: 7.14 ± 1.13 %ID/g | tissue uptake at 1 h [1, 8]: 5.63 ± 2.27 %ID/g | tissue uptake at 2 h [1, 8]: 2.18 ± 0.8 %ID/g | tissue uptake at 4 h [1, 8]: 0.95 ± 0.58 %ID/g | tissue uptake at 8 h [1, 8]: 0.47 ± 0.1 %ID/g | tissue uptake at 24 h [1, 8]: 0.098 ± 0.008 %ID/g | tissue uptake at 0.25 h [1, 9]: 4.61 ± 0.82 %ID/g | tissue uptake at 0.5 h [1, 9]: 3.77 ± 0.67 %ID/g | tissue uptake at 1 h [1, 9]: 2.99 ± 1.41 %ID/g | tissue uptake at 2 h [1, 9]: 1.15 ± 0.38 %ID/g | tissue uptake at 4 h [1, 9]: 0.45 ± 0.3 %ID/g | tissue uptake at 8 h [1, 9]: 0.33 ± 0.07 %ID/g | tissue uptake at 24 h [1, 9]: 0.037 ± 0.008 %ID/g | tissue uptake at 0.25 h [1, 10]: 3.09 ± 0.67 %ID/g | tissue uptake at 0.5 h [1, 10]: 2.77 ± 0.54 %ID/g | tissue uptake at 1 h [1, 10]: 2.19 ± 1.03 %ID/g | tissue uptake at 2 h [1, 10]: 0.69 ± 0.29 %ID/g | tissue uptake at 4 h [1, 10]: 0.24 ± 0.12 %ID/g | tissue uptake at 8 h [1, 10]: 0.36 ± 0.31 %ID/g | tissue uptake at 24 h [1, 10]: 0.02 ± 0.004 %ID/g | tissue uptake at 0.25 h [1, 11]: 3.57 ± 0.67 %ID/g | tissue uptake at 0.5 h [1, 11]: 3 ± 0.62 %ID/g | tissue uptake at 1 h [1, 11]: 2.48 ± 1.25 %ID/g | tissue uptake at 2 h [1, 11]: 0.93 ± 0.37 %ID/g | tissue uptake at 4 h [1, 11]: 0.35 ± 0.2 %ID/g | tissue uptake at 8 h [1, 11]: 0.18 ± 0.04 %ID/g | tissue uptake at 24 h [1, 11]: 0.036 ± 0.034 %ID/g | tissue uptake at 0.25 h [1, 12]: 4.36 ± 0.7 %ID/g | tissue uptake at 0.5 h [1, 12]: 4.75 ± 1.05 %ID/g | tissue uptake at 1 h [1, 12]: 3.95 ± 0.93 %ID/g | tissue uptake at 2 h [1, 12]: 3.3 ± 0.93 %ID/g | tissue uptake at 4 h [1, 12]: 1.81 ± 1.6 %ID/g | tissue uptake at 8 h [1, 12]: 0.87 ± 0.54 %ID/g | tissue uptake at 24 h [1, 12]: 0.067 ± 0.014 %ID/g | tissue uptake at 0.25 h [1, 13]: 2.55 ± 0.86 %ID/g | tissue uptake at 0.5 h [1, 13]: 3.48 ± 0.46 %ID/g | tissue uptake at 1 h [1, 13]: 2.7 ± 0.39 %ID/g | tissue uptake at 2 h [1, 13]: 2.55 ± 1.65 %ID/g | tissue uptake at 4 h [1, 13]: 2.08 ± 0.27 %ID/g | tissue uptake at 8 h [1, 13]: 1.22 ± 0.24 %ID/g | tissue uptake at 24 h [1, 13]: 0.206 ± 0.23 %ID/g | time required to reduce the cell population by 90% (EMT-6 cells; 1.0 mM, hypoxic, 37° C.): 1.65 h | selective toxicity to hypoxic EMT-6 tumor cells (EMT-6 cells; in words): selective toxicity to hypoxic EMT-6 tumor cells

Source: patent US5401490A, “Markers of tissue hypoxia” (priority 1989, dated 1995)
